Data published in US7084301B2 (Ranbaxy Laboratories Limited, priority 2003, dated 2006).

Tests used:
5-HT1A receptors = target: T1, 5-HT1A receptors (Homo sapiens, UniProt P08908); settings: reported, J. Med. Chem. 2000; cited from earlier work
T1 sequence (P08908 1-422): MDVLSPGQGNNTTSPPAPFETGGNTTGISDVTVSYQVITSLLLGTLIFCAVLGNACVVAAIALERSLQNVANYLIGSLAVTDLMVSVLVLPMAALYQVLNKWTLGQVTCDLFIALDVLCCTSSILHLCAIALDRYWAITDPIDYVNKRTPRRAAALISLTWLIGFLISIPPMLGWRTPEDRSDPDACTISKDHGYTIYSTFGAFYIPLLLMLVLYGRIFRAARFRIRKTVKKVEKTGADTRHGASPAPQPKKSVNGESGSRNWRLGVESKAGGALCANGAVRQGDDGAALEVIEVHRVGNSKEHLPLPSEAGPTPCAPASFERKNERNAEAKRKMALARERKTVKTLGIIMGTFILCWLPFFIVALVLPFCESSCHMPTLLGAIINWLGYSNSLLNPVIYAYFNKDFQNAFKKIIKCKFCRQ

[1] = target: T2, rat α1D-adrenoceptor (aorta) (Rattus norvegicus, UniProt P23944); test: In-vitro functional study, agonist-induced contractile response on isolated rat aorta; format: biochemical
T2 sequence (P23944 1-561): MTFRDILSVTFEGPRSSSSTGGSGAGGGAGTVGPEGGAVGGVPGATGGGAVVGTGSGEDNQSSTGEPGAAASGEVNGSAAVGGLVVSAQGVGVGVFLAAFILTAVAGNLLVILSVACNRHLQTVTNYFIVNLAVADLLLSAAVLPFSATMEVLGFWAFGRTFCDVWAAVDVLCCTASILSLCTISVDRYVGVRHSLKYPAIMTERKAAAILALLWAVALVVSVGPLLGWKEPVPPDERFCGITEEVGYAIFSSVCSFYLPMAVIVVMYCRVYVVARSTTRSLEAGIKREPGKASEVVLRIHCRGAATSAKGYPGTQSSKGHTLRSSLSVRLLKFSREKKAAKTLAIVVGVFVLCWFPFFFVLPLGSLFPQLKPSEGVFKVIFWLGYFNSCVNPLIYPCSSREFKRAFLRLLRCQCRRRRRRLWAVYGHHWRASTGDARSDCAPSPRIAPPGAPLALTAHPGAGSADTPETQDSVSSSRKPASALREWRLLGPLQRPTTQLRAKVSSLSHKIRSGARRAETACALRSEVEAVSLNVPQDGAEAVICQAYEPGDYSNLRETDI
Method: Aorta, prostate and spleen tissues were isolated from urethane anaesthetized (1.5 gm/kg) male wistar rats. Isolated tissues were mounted in organ bath containing Krebs Henseleit buffer of following compostion (mM): NaCl 118; KCl 4.7; CaCl2 2.5; MgSO4.7H2O 1.2; NaHCO3 25; KH2PO4 1.2; glucose 11.5. Buffer was maintained at 37° C. and aerated with a mixture of 95% O2 and 5% CO2. A resting tension of 2 g (aorta) or 1 g (spleen and prostate) was applied to tissues. Contractile response was monitored using a force displacement transducer and recorded on chart recorders. Tissues were allowed to equilibrate for 2 hours. At the end of equilibration period, concentration response curves to norepinephrine (aorta) and phenylepinephrine (spleen and prostate) were obtained in absence and presence of tested compound (at concentrations of […]). Antagonist affinities were calculated and expressed as pKB vales in Table II.
To compare the differences in pKB at the α1-arenrenoceptor subtypes one-way ANOVA followed by Dunett ‘t’ test was applied. A p<0.05 was considered statistically significant.

human α1A-adrenoceptors = target: T3, human α1A-adrenoceptors (Homo sapiens, UniProt P35348); test: Radioligand-receptor binding assay, human recombinant α1A-adrenoceptor, [3H]prazosin
T3 sequence (P35348 1-466): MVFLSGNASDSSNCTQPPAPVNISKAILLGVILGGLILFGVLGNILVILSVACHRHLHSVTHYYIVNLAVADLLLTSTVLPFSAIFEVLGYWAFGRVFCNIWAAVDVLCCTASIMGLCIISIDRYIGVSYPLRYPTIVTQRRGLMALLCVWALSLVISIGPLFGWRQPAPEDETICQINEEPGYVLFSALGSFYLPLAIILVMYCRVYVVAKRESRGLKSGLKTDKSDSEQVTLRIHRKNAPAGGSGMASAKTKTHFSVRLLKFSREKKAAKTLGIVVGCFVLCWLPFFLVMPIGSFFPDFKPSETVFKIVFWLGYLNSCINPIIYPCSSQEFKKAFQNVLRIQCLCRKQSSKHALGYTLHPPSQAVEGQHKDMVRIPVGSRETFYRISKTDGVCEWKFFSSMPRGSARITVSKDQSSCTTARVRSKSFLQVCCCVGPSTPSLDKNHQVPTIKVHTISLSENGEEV
Method: Chinese hamster ovary (CHO) cells which had been stably transfected with human α1A, α1B, or α1D-adrenoceptors (Keffel et al., Biochem. Biophys. Res. Commun., 2000, 272, 906–11) were cultured in an atmosphere of 5% CO2/95% air at 37° C. in F-12 HAM medium supplemented with 10% heat-inactivated fetal calf serum, 1 mM glutamine, 100 U/ml penicillin and 0.1 mg/ml streptomycin. Selection pressure was maintained by regular addition of geneticin to the culture medium.
Competitive radioligand binding to the cloned subtypes of […] was performed using [^3H]prazosin as the radioligand as described by Michel et al, Br. J. Pharmacol., 98, 883–889 (1989) with minor modifications. Experiments were performed in binding buffer consisting of 50 mM Tris, 10 mM MgCl2 and 0.5 mM EDTA at pH 7.5 in a total assay volume of 1000 μl. The protein content typically was 40–60 μg/assay. The mixtures were incubated at 25° C. for 45 minutes. Incubations were terminated by rapid vacuum filtration over GF/C filters followed by two washes of the filters each with 10 ml ice-cold incubation buffer. Non-specific binding was defined as binding in the presence of 10 μM phentolamine.
The IC50 & Kd were estimated by using the non-linear curve fitting program using G Pad Prism software. The value of inhibition constant Ki was calculated from competitive binding studies by using Cheng & Prusoff equation [Cheng & Prusoff, Biochem. Pharmacol., 22, 3099–3108 (1973)], Ki=IC50/(1+L/Kd), where L is the concentration of [^3H] prazosin used in the particular experiment. Kd of [^3H] prazosin was determined from saturation binding studies. The values were tabulated as mean±SEM of pKi values, where pKi is the −log of Ki value.

SMILES | affinity for 5-HT1A receptors (5-HT1A receptors) | melting point [°C] | Kb [1] [nM] | fold greater affinity for α1A-adrenoreceptor subtype than the corresponding (S)-isomer (human α1A-adrenoceptors; human recombinant receptors) [fold] | Ki (human α1A-adrenoceptors; human recombinant receptors in CHO cells, mean ± SEM, read-out: pKi α1A (converted)) [nM]
CCOc1ccccc1OCCNC(C)Cc1ccc(OC)c(S(N)(=O)=O)c1 (single isomer, unassigned; (-)) [Tamsulosin, (−) isomer of 5-[2-[2-(2-ethoxyphenoxy)ethylamino]-2-methylethyl]-2-methoxybenzene sulfonamide, reference compound] | subnanomolar affinity | – | – | – | –
CCOc1ccccc1OCCN[C@H](C)Cc1ccc(O)c(S(N)(=O)=O)c1 [Formula I, R (−)-5-[2-[[2-(2-ethoxyphenoxy)ethyl]amino]propyl]-2-hydroxybenzenesulfonamide] | – | 159.5 | 0.00589 | 102 | 0.0219
